Laboratory results published in patent US20150346214A1, “DETECTION OF MEMBRANE PROTEINS” (priority 2012, published 2015).
Entries after “also recorded” stand apart in the source; their conditions may differ.

Key:
ammonium channel (AmtB) = ammonium channel (AmtB) (Escherichia coli, UniProt P69681); experiment: Mass spectra and ion mobility MS of AmtB complex in three detergents (Example 2); parameters: species or system E. coli
Method: (§1) AmtB-GFP and AQPZ-GFP were extracted from purified membranes in 2% OG in Buffer B and incubated overnight at 4° C. Extracted membrane proteins were clarified by centrifugation at 20,000 g for 25 minutes at 4° C. The clarified supernatant was filtered before loading onto a 5 mL HisTrap-HP column (GE Healthcare, Piscataway, NJ) equilibrated in Buffer E (200 mM sodium chloride, 10% glycerol, 20 mM Imidazole, 0.025% DDM, and 50 mM TRIS, pH 7.4 at room temperature). After the clarified supernatant was loaded, the column was initially washed with 40-50 mL of Buffer E containing 1% OG instead of DDM followed by several column volumes of Buffer E until a steady baseline was reached. Protein was eluted with a linear gradient to 100% in two column volumes of Buffer F (100 mM sodium chloride, 10% glycerol, 500 mM Imidazole, 0.025% DDM, and 50 mM TRIS, pH 7.4 at room temperature). Peak fractions were pooled, supplemented with 5mM BME and His-tagged TEV protease, arid dialyzed against Buffer G (150 mM sodium chloride, 10% glycerol, 20 mM Imidazole, 0.02% DDM, and 50 mM TRIS, pH 7.4 at room temperature) overnight at 4° C. After overnight incubation at 4° C., samples were filtered and passed back over a 5 mL. HisTrap-HP column equilibrated in Buffer E. Flow through containing the untagged membrane protein was collected and concentrated using a 100 kDa MWCO concentrator. Concentrated protein was flash frozen in liquid nitrogen and stored at -80° C.
(§2) Frozen samples were thawed on ice prior to detergent exchange over gel filtration. Samples were injected on a Superdex 200 10/300 (GE Healthcare) equilibrated in Buffer H (130 mM sodium chloride, 10% glycerol, and 50 mM TRIS, pH 7.4 at room temperature) supplemented with 0.5% of C8E4, 0.4% of NG, or 0.02% of DDM. Peak fractions were concentrated using a 100 kDa MWCO concentrator. Concentrated protein was either used directly or flash-frozen in liquid nitrogen and stored at −80° C. Purified membrane proteins were buffer exchanged into MS Buffer (2× CMC detergent of interest and 200 mM Ammonium Acetate, pH 8.0 with Ammonium Hydroxide) using a centrifugal buffer exchange device (Micro Bio-Spin 6, Bio-Rad).
(§3) Buffer exchanged protein was analysed on a quadrupole ion mobility time-of-flight mass spectrometer (Synapt HDMS, Waters Corp.) modified with an 18 cm drift cell with radial RF confinement (RF amplitude 200 V) and a linear voltage gradient along the axis of ion transmission such that collision cross section (CCS) values could be determined directly.
(§4) Mass spectra were acquired with instrument set to 10 volts for sample cone and 200 volts for collision voltage.
(§5) The preservation of native structure is most likely due to the charge reducing behaviour of C8E4, as well as other polyoxyalkylene glycol detergents, which results in a two to five fold reduction in activation energy. In addition, under ELAB values slightly greater than 1500, the CCS value increases consistent with partial unfolding. More importantly, gas-phase unfolding can be observed for these membrane complexes at ELAB values of 1750 to 2250. These gas-phase unfolding transitions can be altered in the presence of a drug molecule that stabilises protein structure, thereby enabling the detection of drug molecules that stabilise protein structure.

Aquaporin Z (AQPZ) [1] = target: T1, Aquaporin Z (AQPZ) (Escherichia coli, UniProt P60844); experiment: Mass spectra and ion mobility MS of AQPZ complex in three detergents (Example 2); parameters: species or system E. coli
Method: as §1, §2, §3, §4, §5

[2] = target: E. coli ammonium channel C-terminally fused to green fluorescent protein (AmtB-GFP) (Escherichia coli, UniProt P69681, S65T); conditions: AmtB-GFP trimer in MS buffer with 2x CMC of the detergent; charge state envelopes modelled with a Gaussian
Method: The activation energy required to achieve resolved peaks of E. coli ammonium channel C-terminally fused to green fluorescent protein (AmtB-GFP) was assessed for a variety of non-ionic detergents.
AmtB-GFP was extracted from purified membranes (described above) with 1-2% (w/v) of the detergent of interest in Buffer B and incubated for one to three hours at room temperature or overnight at 4° C. Insoluble material was pelleted by centrifugation at 20,000 g for 25 minutes at 4° C. The clarified supernatant was loaded onto small Ni-NTA agarose (Qiagen) drip columns (Bio-spin Chromatography columns, Bio-Rad) and washed with several column volumes of Buffer C (200 mM sodium chloride, 20 mM Imidazole, 5 mM BME, 2× CMC detergent of interest, and 50 mM TRIS, pH 8.0 at room temperature). AmtB-GFP was eluted with two column volumes of Buffer D (100 mM sodium chloride, 250 mM Imidazole, 5 mM BME, 2× CMC detergent of interest, and 50 mM TRIS, pH 8.0 at room temperature). Eluted protein was concentrated using a 100 kDa MWCO concentrator and buffer exchanged into MS Buffer (2× CMC detergent of interest and 200 mM Ammonium Acetate, pH 8.0 with Ammonium Hydroxide) using a centrifugal buffer exchange device (Micro Bio-Spin 6, Bio-Rad).
Buffer exchanged protein was analysed on a Q-TOF 2 mass spectrometer (Micromass, Manchester, UK) with a Z-spray source including modifications for protein complexes after introduction of complexes from gold-coated nanoflow capillaries.

Aquaporin Z (AQPZ) [3] = target: T1, Aquaporin Z (AQPZ); experiment: Phospholipid binding to AQPZ resolved by native MS / IM-MS in C8E4; parameters: species or system E. coli; conditions: AQPZ in C8E4; optimised P:L:D ratio of Table 2
[4] = target: T2, mechanosensitive channel of large conductance (MscL) (Mycobacterium tuberculosis, UniProt P9WJN5); experiment: Phospholipid binding to MscL resolved by native MS / IM-MS in C8E4; conditions: optimised P:L:D ratio of Table 2
T2 sequence (P9WJN5 1-151): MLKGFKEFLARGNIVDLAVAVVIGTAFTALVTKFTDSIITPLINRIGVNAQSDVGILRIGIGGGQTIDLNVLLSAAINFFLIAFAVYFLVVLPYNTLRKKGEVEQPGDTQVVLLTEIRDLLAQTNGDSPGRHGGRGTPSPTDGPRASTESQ

ammonia channel (AmtB) [5] = target: T3, ammonia channel (AmtB) (Escherichia coli, UniProt P69681); experiment: Gas-phase (collision-induced) unfolding IM-MS: stabilisation of AmtB by bound phospholipid; format: binding, E. coli; conditions: +15 charge state, versus apo form
Method: (§6) IM-MS was used to resolve individual phospholipid-bound states of membrane proteins, in folded conformations, devoid of the complication of the lipid bilayer. Bound phospholipids were then ranked based on their ability to prevent gas-phase unfolding. Combining the IM-MS data for the three protein complexes with molecular dynamic (MD) simulations, probable lipid binding sites were then identified.
Ion mobility measurements were performed on a modified Synapt G1 HDMS instrument with the travelling-wave on mobility cell replaced by an 18-cm drift cell with radial RF on confinement and a linear voltage gradient to direct ions along the axis of transmission to the time-of-flight (TOF) mass analyser. Ion mobility mass spectrometer was typically set to a source pressure of 5-7 mBar, capillary voltage of 1.4-1.7 kV, capillary nanoflow of 0.03-0.2 mBar and argon as collision gas with flow rate set to 5-8 mL/min (˜6.6-6.7 e-2 mBar). Collision voltage ranged from 2-240 V with measurements taken at 5 V and 2 V steps for monitoring gas-phase unfolding of membrane and soluble protein complexes, respectively. The sample and extraction cone and trap bias voltages, quadrupole profile, and collision gas pressure were optimized for maximal ion intensity of the target membrane protein complex. Helium was the drift cell gas and set to a pressure of ˜1.6-1.8 Torr (40 ml/min flow rate). Pusher time, pulse width and TDC inhibit were set to 180, 7 and 7 μs, respectively. The ion guide/source (300 ms^−1, 10 V), trap (300 ms^−1, 0.2 V) and transfer (100 ms^−1, 10 V) travelling wave velocities and wave heights were kept constant. The mobility release time was set at 200 μs with a trap voltage of 30 V and extract voltage of 10 V. Pressure and temperature of the ion mobility cell was measured directly. Ion drift time (td) was determined as described in Bush et al (Analytical Chemistry, 2010, 82, 9557-.9565).
Ion mobility data were imported using a custom script provided by Waters at an m/z resolution of four in drift data and one in mass spectra for fitting. Mass spectra were smoothed and theoretical mass spectra were fitted as outlined above. A standardized integration window was employed for extracting arrival time distributions (ATD) using a resolution (R=[…]) of 1000 and a height cut-off of 25% for the modelled Gaussian to the respective m/z peak. […]
To extract quantitative values for the effects of phospholipid binding on unfolding pathways, an established equilibrium unfolding model, used extensively in solution studies involving chemical denaturation, was applied. […] By comparing the apo form of the protein with lipid bound states, the average stabilisation was calculated by fitting the unfolding pathway for the most abundant charge state, identifying four distinct intermediate states. […]

ammonia channel (AmtB) [6] = target: T3, ammonia channel (AmtB); experiment: Phospholipid binding to AmtB resolved by native MS / IM-MS in C8E4; parameters: species or system E. coli; conditions: for # Bound (number of resolvable phospholipids bound): AmtB in C8E4, optimised P:L:D ratio of Table 2; for extent of phospholipid binding to AmtB: in words, co-transport into the gas phase
Aquaporin Z (AQPZ) [7] = target: T1, Aquaporin Z (AQPZ); experiment: Gas-phase (collision-induced) unfolding IM-MS: stabilisation of AQPZ by bound phospholipid; format: binding, E. coli; conditions: +13 charge state, versus apo form
Method: as §6
Ion mobility measurements were performed on a modified Synapt G1 HDMS instrument with the travelling-wave on mobility cell replaced by an 18-cm drift cell with radial RF on confinement and a linear voltage gradient to direct ions along the axis of transmission to the time-of-flight (TOF) mass analyser. […] The mobility release time was set at 200 μs with a trap voltage of 30 V and extract voltage of 10 V. Pressure and temperature of the ion mobility cell was measured directly. Ion drift time (td) was determined as described in Bush et al (Analytical Chemistry, 2010, 82, 9557-.9565). […]
To extract quantitative values for the effects of phospholipid binding on unfolding pathways, an established equilibrium unfolding model, used extensively in solution studies involving chemical denaturation, was applied. […]

T1 sequence (P60844 whole entry): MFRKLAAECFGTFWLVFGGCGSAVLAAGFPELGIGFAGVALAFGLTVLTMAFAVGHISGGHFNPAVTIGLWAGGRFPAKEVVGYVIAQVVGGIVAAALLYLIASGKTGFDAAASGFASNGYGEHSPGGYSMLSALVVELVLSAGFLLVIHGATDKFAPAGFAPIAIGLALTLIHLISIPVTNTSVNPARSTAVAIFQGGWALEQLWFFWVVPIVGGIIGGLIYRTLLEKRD

| Molecule | experimental collisional cross section (CCS) / folded state (ammonium channel (AmtB); AmtB, IM-MS, CIU fingerprints, C8E4 at ELAB <1500) | species in mass spectrum (expected oligomer versus dissociation products) (ammonium channel (AmtB); trimeric AmtB, sample cone 10 volts, collision voltage 200 volts) | experimental collisional cross section (CCS) / folded state (Aquaporin Z (AQPZ) [1]; AQPZ, IM-MS, CIU fingerprints, C8E4 at ELAB <1500) | species in mass spectrum (expected oligomer versus dissociation products) (Aquaporin Z (AQPZ) [1]; tetrameric AQPZ, sample cone 10 volts, collision voltage 200 volts) | Zavg (mean charge state) [2] | # Bound (number of resolvable phospholipids bound) (Aquaporin Z (AQPZ) [3]) | # Bound (number of resolvable phospholipids bound) [4] | average stabilisation of AmtB by bound phospholipid (resistance to gas-phase unfolding) (ammonia channel (AmtB) [5]) | # Bound (number of resolvable phospholipids bound) (ammonia channel (AmtB) [6]) | extent of phospholipid binding to AmtB (ammonia channel (AmtB) [6]) | average stabilisation of AQPZ by bound phospholipid (resistance to gas-phase unfolding) (Aquaporin Z (AQPZ) [7]) | bound phospholipid molecules (ammonia channel (AmtB) [6]; AmtB, moderate collision activation 175 V (FIG. 7a)) |
| --- | --- | --- | --- | --- | --- | --- | --- | --- | --- | --- | --- | --- |
| CCCCCCCCCO[C@@H]1O[C@H](CO)[C@@H](O)[C@H](O)[C@H]1O [NG, n-Nonyl-β-D-glucopyranoside] | no CCS could be observed indicating native structure | mainly dissociation products | the complex is unfolded | mainly dissociation products | 30.4 |  |  |  |  |  |  |  |
| CCCCCCCC/C=C\CCCCCCCC(=O)O[C@H](COC(=O)CCCCCCCCCCCCCCC)COP(=O)(O)O [PA, 1-palrnitoyl-2-oleoyl-sn-glycero-3-phosphate (16:0-18:1)] |  |  |  |  |  | 2 | 1 | not correlated with significant stabilisation | 3 | extensive |  |  |
| CCCCCCCC/C=C\CCCCCCCC(=O)O[C@H](COC(=O)CCCCCCCCCCCCCCC)COP(=O)(O)OC[C@H](N)C(=O)O [PS, 1-palmitoyl-2-oleoyl-sn-glycero-3-phospho-L-serine (16:0-18:1)] |  |  |  |  |  | 3 | 2 | not correlated with significant stabilisation | 3 | extensive |  |  |
| Cardiolipin (E. coli) [CDL] |  |  |  |  |  | 1 | 1 | significant stabilisation | 1 | only low populations | substantial increase in protein stability compared to all other phospholipids; also recorded: stabilises AQPZ significantly |  |
| L-α-phosphatidylglycerol (E. coli) [PG] |  |  |  |  |  | 3 | 2 | dramatic increase in stabilisation; also recorded: significant stabilisation | 4 |  |  | one to four |
